This note sets out measurements from patent US7939265B2, “Agents for and method of quantifying binding” (Badrilla Limited, priority 2004, dated 2011).

The test deals with polyclonal antiserum SERCA PS-38. Description: Peptide inhibition of antiserum SERCA PS-38 binding to antigen. Also noted: species or system rabbit. Particulars: competition against polyclonal antiserum SERCA PS-38. As for the experimental part:
Phosphorylated Ca^2+-ATPase peptide on Ser-38 residue (^31KLKERWGS (PO4)NEL^41) was prepared by the CaMKII phosphorylation of peptide ^31KLKERWGSNEL^41. The phosphopeptide was purified to homogeneity by reverse phase high performance liquid chromatography. Peptide was conjugated to keyhole limpet haemocyanin (KLH) using carbodiimide cross linkage (3) and dialysed extensively against buffer (50 mM Tris-HCl pH 7.2, 150 mM NaCl). Adult New Zealand White rabbits were immunised with ˜150 μg KLH and attached peptide at 6 weeks intervals and immune serum collected 11 days after immunisations. Serum was prepared and stored at −70° C. A polyclonal antiserum is described herein: SERCA PS-38 raised to the phosphorylated peptide.
The phosphorylation of SERCA2 on Ser-38 has been described as a regulatory feature capable of very significant activation of Ca2+-ATPase activity. This site, although unique to SERCA2, is contained within a segment of the protein which is highly conserved between SERCA1 and SERCA2 particularly from residue 39 onwards. […] By analogy with SERCA1, for which two high resolution structures exist the Ser-38 site of phosphorylation on SERCA2 is predicted to be in a surface exposed, highly mobile segment of the protein. […]

Where no end group is shown, it is not given here. [ ]: non-standard residue; d: D form. pS = N[C@@H](COP(=O)(O)O)C(=O)O

In the case of “31KLKERWGSNEL41 (UniProt P16615 31-41, looked up, fragment) [dephosphorylated peptide, equivalent dephosphorylated SERCA2a Ser-38 peptide]”, the “interference with antibody:antigen recognition” value is listed as “unable to interfere with antibody:antigen recognition”. On to “31KLKERWGS(PO4)NEL41 (KLKERWG[pS]NEL; UniProt P16615 31-41, looked up, fragment) [phosphopeptide]”, for which the IC50 (read-out: inhibition of antibody binding to antigen (IC50)) turned out to be 18 nM.

Usually IC50 stands for the point on the concentration scale where inhibition reaches its midpoint.
